ChEMBL document CHEMBL5352426, “Synthesis and anti-tumor activity of nitrogen-containing derivatives of the natural product diphyllin” (Eur J Med Chem, 2022)

What was measured:
[1] = Antiproliferative activity against human L02 cells assessed as inhibition of cell proliferation at 1 uM incubated for 72 hrs by SRB assay relative to control; assay type: toxicity, cell-based
[2] = test system: MIA PaCa-2; test: Antiproliferative activity against human MIA PaCa-2 cells assessed as inhibition of cell proliferation at 1 uM incubated for 72 hrs by SRB assay relative to control; assay type: functional
[3] = test system: CFPAC-1; test: Antiproliferative activity against human CFPAC-1 cells assessed as inhibition of cell proliferation at 1 uM incubated for 72 hrs by SRB assay relative to control; assay type: functional
[4] = test system: PaTu 8988t; test: Antiproliferative activity against human PaTu 8988t cells assessed as inhibition of cell proliferation at 1 uM incubated for 72 hrs by SRB assay relative to control; assay type: functional
[5] = test system: Panc02; test: Antiproliferative activity against mouse Panc02 cells assessed as inhibition of cell proliferation at 1 uM incubated for 72 hrs by SRB assay relative to control; assay type: functional
[6] = Antiproliferative activity against human L02 cells assessed as inhibition of cell proliferation incubated for 72 hrs by SRB assay; assay type: toxicity, cell-based
[7] = test system: MIA PaCa-2; test: Antiproliferative activity against human MIA PaCa-2 cells assessed as inhibition of cell proliferation incubated for 72 hrs by SRB assay; assay type: functional, cell-based; conditions: MIA PaCa-2, 72 h
[8] = test system: CFPAC-1; test: Antiproliferative activity against human CFPAC-1 cells assessed as inhibition of cell proliferation incubated for 72 hrs by SRB assay; assay type: functional, cell-based; conditions: CFPAC-1, 72 h
[9] = test system: PaTu 8988t; test: Antiproliferative activity against human PaTu 8988t cells assessed as inhibition of cell proliferation incubated for 72 hrs by SRB assay; assay type: functional, cell-based
[10] = test system: Panc02; test: Antiproliferative activity against mouse Panc02 cells assessed as inhibition of cell proliferation incubated for 72 hrs by SRB assay; assay type: functional, cell-based; conditions: Panc02, 72 h

Q: With `COc1cc2c(NS(N)(=O)=O)c3c(c(-c4ccc5c(c4)OCO5)c2cc1OC)C(=O)OC3` as the compound, how does the inhibition at 72 h, 1 µM [1] read?
A: 14.9%

Q: And the inhibition at 1 µM [2]?
A: 29%

Q: What about the inhibition at 1 µM [3] of the same compound?
A: 72.4%

Q: What about the inhibition at 1 µM [4] of the same compound?
A: 34.1%

Q: And the inhibition at 1 µM [5]?
A: 80.7%

Q: Which results are given for `COc1cc2c(OCc3cn([C@H]4O[C@@H](C)[C@H](OC(C)=O)[C@@H](OC(C)=O)[C@H]4OC(C)=O)nn3)c3c(c(-c4ccc5c(c4)OCO5)c2cc1OC)C(=O)OC3`?
A: inhibition at 72 h, 1 µM [1]: 21.6%; inhibition at 1 µM [2]: 83.7%; inhibition at 1 µM [3]: 65.9%; inhibition at 1 µM [4]: 72.5%; inhibition at 1 µM [5]: 76.3%; IC50 at 72 h [6]: 1230 nM; IC50 [7]: 248 nM; IC50 [8]: 97 nM; IC50 [9]: 163 nM; IC50 [10]: 270 nM

Q: With `COc1cc2c(NC(=O)[C@H](C)N)c3c(c(-c4ccc5c(c4)OCO5)c2cc1OC)C(=O)OC3` as the compound, how does the inhibition at 72 h, 1 µM [1] read?
A: 1.54%

Q: And the inhibition at 1 µM [2]?
A: 0.64%

Q: And the inhibition at 1 µM [3]?
A: 42.7%

Q: And the inhibition at 1 µM [4]?
A: -4.32%

Q: What about the inhibition at 1 µM [5] of the same compound?
A: 25.3%

Q: Which inhibition at 72 h, 1 µM [1] does the source give for `CNc1c2c(c(-c3ccc4c(c3)OCO4)c3cc(OC)c(OC)cc13)C(=O)OC2` here?
A: 35.5%

Q: What about the inhibition at 1 µM [2] of the same compound?
A: 92.3%

Q: What about the inhibition at 1 µM [3] of the same compound?
A: 82.1%

Q: What about the inhibition at 1 µM [4] of the same compound?
A: 92%

Q: And the inhibition at 1 µM [5]?
A: 91.4%

Q: With `COc1cc2c(OCCCc3cn([C@H]4O[C@@H](C)[C@H](O)[C@@H](O)[C@H]4O)nn3)c3c(c(-c4ccc5c(c4)OCO5)c2cc1OC)C(=O)OC3` as the compound, how does the inhibition at 72 h, 1 µM [1] read?
A: -0.18%

Q: And the inhibition at 1 µM [2]?
A: 46.5%

Q: What about the inhibition at 1 µM [3] of the same compound?
A: 45.9%

Q: What about the inhibition at 1 µM [4] of the same compound?
A: 8.08%

Q: And the inhibition at 1 µM [5]?
A: 16.6%

Q: Which inhibition at 72 h, 1 µM [1] does the source give for `COc1cc2c(OCc3cn([C@H]4O[C@@H](C)[C@H](O)[C@@H](O)[C@H]4O)nn3)c3c(c(-c4ccc5c(c4)OCO5)c2cc1OC)C(=O)OC3` here?
A: -1.75%

Q: What about the inhibition at 1 µM [2] of the same compound?
A: 0.95%

Q: And the inhibition at 1 µM [3]?
A: 14.9%

Q: And the inhibition at 1 µM [4]?
A: -2.09%

Q: And the inhibition at 1 µM [5]?
A: 8.85%

Q: Which inhibition at 72 h, 1 µM [1] does the source give for `COc1cc2c(OCCOCc3cn([C@H]4O[C@@H](C)[C@H](OC(C)=O)[C@@H](OC(C)=O)[C@H]4OC(C)=O)nn3)c3c(c(-c4ccc5c(c4)OCO5)c2cc1OC)C(=O)OC3` here?
A: 16.4%

Q: What about the inhibition at 1 µM [2] of the same compound?
A: 72.4%

Q: What about the inhibition at 1 µM [3] of the same compound?
A: 66.7%

Q: And the inhibition at 1 µM [4]?
A: 86.5%

Q: And the inhibition at 1 µM [5]?
A: 53.4%

Q: And the IC50 at 72 h [6]?
A: 1040 nM

Q: And the IC50 [7]?
A: 756 nM

Q: And the IC50 [8]?
A: 50 nM

Q: And the IC50 [9]?
A: 766 nM

Q: What about the IC50 [10] of the same compound?
A: 216 nM

Q: For `COc1cc2c(NC(=O)OC(C)(C)C)c3c(c(-c4ccc5c(c4)OCO5)c2cc1OC)C(=O)OC3`, which inhibition at 72 h, 1 µM [1] is on record?
A: 9.56%

Q: What about the inhibition at 1 µM [2] of the same compound?
A: 52.5%

Q: What about the inhibition at 1 µM [3] of the same compound?
A: 70.5%

Q: What about the inhibition at 1 µM [4] of the same compound?
A: 72%

Q: And the inhibition at 1 µM [5]?
A: 78.1%

Q: And the IC50 at 72 h [6]?
A: 5120 nM

Q: What about the IC50 [7] of the same compound?
A: 161 nM

Q: And the IC50 [8]?
A: 37 nM

Q: What about the IC50 [9] of the same compound?
A: 88 nM

Q: What about the IC50 [10] of the same compound?
A: 261 nM

Q: What does the source list for `COc1cc2c(OCCOCc3cn([C@H]4O[C@@H](C)[C@H](O)[C@@H](O)[C@H]4O)nn3)c3c(c(-c4ccc5c(c4)OCO5)c2cc1OC)C(=O)OC3`?
A: inhibition at 72 h, 1 µM [1]: 1.57%; inhibition at 1 µM [2]: 0.16%; inhibition at 1 µM [3]: 53.9%; inhibition at 1 µM [4]: 0.9%; inhibition at 1 µM [5]: 46%

Q: Which results are given for `COc1cc2c(NC(=O)[C@@H](N)COC(C)=O)c3c(c(-c4ccc5c(c4)OCO5)c2cc1OC)C(=O)OC3`?
A: inhibition at 72 h, 1 µM [1]: -0.71%; inhibition at 1 µM [2]: 3.38%; inhibition at 1 µM [3]: 11.6%; inhibition at 1 µM [4]: 2.63%; inhibition at 1 µM [5]: 8.86%

Q: Which inhibition at 72 h, 1 µM [1] does the source give for `COC(=O)CNc1c2c(c(-c3ccc4c(c3)OCO4)c3cc(OC)c(OC)cc13)C(=O)OC2` here?
A: 10.8%

Q: And the inhibition at 1 µM [2]?
A: 10.2%

Q: What about the inhibition at 1 µM [3] of the same compound?
A: 48.4%

Q: What about the inhibition at 1 µM [4] of the same compound?
A: 85.2%

Q: What about the inhibition at 1 µM [5] of the same compound?
A: 42%
